In brackets after ≈: the same amount, converted by molar mass.
Legend:
in vitro [1] = details: human
physchem [2] = details: octan-1-ol/water, pH 7.4, LogD7.4
in vitro [3] = details: human, plasma, PPB
physchem [4] = details: pH 7.4 buffer

Cc1ccccc1CCOCCCS(=O)(=O)CCNCCc1ccc(O)c2nc(O)sc12
microsomal CLint (in vitro [1]; liver microsomes): > 150 µL/min/mg

CCCCc1nc2c(N)nc3ccccc3c2n1CC(C)(C)O
microsomal CLint (in vitro [1]; liver microsomes): < 3 µL/min/mg

Nc1nc(-c2ccccn2)nc(N)c1Cc1ccc(Cl)cc1Cl
microsomal CLint (in vitro [1]; liver microsomes): 37.1 µL/min/mg

Cc1[nH]c(/C=C2\C(=O)Nc3ccc(F)cc32)c(C)c1C(=O)NCCN(C)C
logD (physchem [2]): 1.75
fraction unbound at 5 h (in vitro [3]): 0.173

Cc1cc(Nc2nc(N[C@@H](C)c3ncc(F)cn3)ncc2F)n[nH]1
logD (physchem [2]): 1.79
fraction unbound at 5 h (in vitro [3]): 0.471

Cc1cc(Nc2nc(N[C@@H](C)c3ncc(F)cn3)ncc2C)n[nH]1
logD (physchem [2]): 1.75
fraction unbound at 5 h (in vitro [3]): 0.28

O=C(O)COc1ccc(Cl)cc1CN1CCCN(S(=O)(=O)c2ccccc2)CC1
microsomal CLint (in vitro [1]; microsomes): < 3 µL/min/mg

C[C@@H]1CN(Cc2cc(Cl)ccc2OCC(=O)O)C[C@H](C)N1C(=O)Cc1ccccc1
microsomal CLint (in vitro [1]; microsomes): < 3 µL/min/mg

C[C@H]1CN(Cc2cc(Cl)ccc2CC(=O)O)CCN1S(=O)(=O)Cc1ccccc1
microsomal CLint (in vitro [1]; microsomes): < 3 µL/min/mg

Cc1ccc(CO)cc1N(C)c1ccnc(Nc2cc(N3CCCOCC3)cc(N3CCOCC3)c2)n1
logD (physchem [2]): 3.3
solubility thermodynamic (physchem [4]): 91.2 µM (≈ 46 µg/mL)
fraction unbound at 5 h (in vitro [3]): 0.0556

O=C(O)COc1ccc(Br)cc1-c1ccccc1
microsomal CLint (in vitro [1]; liver microsomes): < 3 µL/min/mg

O=C(O)COc1ccc(C(F)(F)F)cc1-c1ccccc1-c1ccccc1
microsomal CLint (in vitro [1]; microsomes): < 3 µL/min/mg

CCS(=O)(=O)c1ccc(-c2cc(C(F)(F)F)ccc2OCC(N)=O)c(C)c1
microsomal CLint (in vitro [1]; liver microsomes): < 3 µL/min/mg

CN(C(=O)Cc1ccc(S(N)(=O)=O)cc1)C1CCN(CCC(c2ccccc2)c2ccccc2)CC1
microsomal CLint (in vitro [1]; liver microsomes): 12 µL/min/mg

NC(=O)Nc1cc(-c2ccsc2)sc1C(N)=O
microsomal CLint (in vitro [1]; liver microsomes): 45 µL/min/mg

Cc1ccc(NC(=O)c2cccc(N3CCOCC3)c2)cc1NC(=O)c1ccc(OCc2ccccn2)cc1
microsomal CLint (in vitro [1]; liver microsomes): 30.3 µL/min/mg

Cc1c(Sc2ccc(Cl)cc2)c2cccc(Cl)c2n1CC(=O)O
microsomal CLint (in vitro [1]; liver microsomes): < 3 µL/min/mg

Cc1c(Sc2ccc(Cl)cc2)c2ccc(Cl)cc2n1CC(=O)O
microsomal CLint (in vitro [1]; liver microsomes): < 3 µL/min/mg

Cc1c(Sc2ccc(Cl)cc2)c2c(C#N)c(Cl)ccc2n1CC(=O)O
microsomal CLint (in vitro [1]; liver microsomes): 4 µL/min/mg

CC(=O)Nc1ccc2c(c1)c(Sc1ccc(Cl)cc1)c(C)n2CC(=O)O
microsomal CLint (in vitro [1]; liver microsomes): 36 µL/min/mg

Cc1c(Sc2ccc(Cl)cc2)c2c(-c3ccccc3)cccc2n1CC(=O)O
microsomal CLint (in vitro [1]; liver microsomes): < 3 µL/min/mg

Cc1c(Sc2ccc(Cl)cc2)c2cc(-c3ccccc3)ccc2n1CC(=O)O
microsomal CLint (in vitro [1]; liver microsomes): 16 µL/min/mg

Cc1ccc2c(c1)c(Sc1ccccc1Cl)c(C)n2CC(=O)O
microsomal CLint (in vitro [1]; microsomes): < 3 µL/min/mg

COc1ccc(Sc2c(C)n(CC(=O)O)c3ccc(C)cc23)cc1
microsomal CLint (in vitro [1]; liver microsomes): < 3 µL/min/mg

Cc1c(Oc2ccc(Cl)cc2)c2cc(F)ccc2n1CC(=O)O
microsomal CLint (in vitro [1]; microsomes): < 3 µL/min/mg

CCS(=O)(=O)Nc1cccc2c1c(Oc1ccc(Cl)cc1)c(C)n2CC(=O)O
microsomal CLint (in vitro [1]; microsomes): < 3 µL/min/mg

CCN(C(=O)Cc1ccc(S(C)(=O)=O)cc1)C1CCN(CCC(c2ccccc2)C2CCN(Cc3ccccc3)CC2)CC1 (centres undefined)
microsomal CLint (in vitro [1]; liver microsomes): > 150 µL/min/mg

CCN(C(=O)Cc1ccc(S(C)(=O)=O)cc1)C1CCN(CC[C@@H](c2cc(C)cc(C)c2)C2CCN(S(C)(=O)=O)CC2)CC1
microsomal CLint (in vitro [1]; liver microsomes): > 150 µL/min/mg

COc1ccc([C@]2(O)CC[C@H](N3CC[C@@H](NC(=O)CNC(=O)c4cccc(C(F)(F)F)c4)C3)CC2)cn1
logD (physchem [2]): 1.72
fraction unbound at 5 h (in vitro [3]): 0.212

Cc1ccc(NC(=O)c2ccc(C#N)cc2)cc1-n1cnc2ccc(N3CCN(C)CC3)cc2c1=O
logD (physchem [2]): 2.73
solubility thermodynamic (physchem [4]): 32.4 µM (≈ 15.5 µg/mL)
fraction unbound at 5 h (in vitro [3]): 0.319

Cc1ccc(NC(=O)c2ccno2)cc1-n1cnc2ccc(N3CCN(C)CC3)cc2c1=O
microsomal CLint (in vitro [1]; liver microsomes): < 3 µL/min/mg

Cc1ccc(NC(=O)c2cscn2)cc1-n1cnc2ccc(N3CCN(C)CC3)cc2c1=O
microsomal CLint (in vitro [1]; liver microsomes): < 3 µL/min/mg

CC(C)Cn1c(=O)n(C)c(=O)c2c(C(=O)N3CC[C@@H](O)C3)c(Cc3c[nH]c4ncccc34)sc21
logD (physchem [2]): 1.71
fraction unbound at 5 h (in vitro [3]): 0.314

Cc1ccc(CCNC(=O)c2ccc3sc(CO)nc3c2)cc1
solubility thermodynamic (physchem [4]): 16.2 µM (≈ 5.29 µg/mL)
fraction unbound at 5 h (in vitro [3]): 0.0293

N#Cc1cccc(C[C@@H](C(=O)O)N2CCC(CN3CCC(Oc4ccc(Cl)c(Cl)c4)CC3)CC2)c1
microsomal CLint (in vitro [1]; liver microsomes): < 3 µL/min/mg

O=C(O)c1cccnc1N1CCC(CN2CCC(Oc3ccc(Cl)c(Cl)c3)CC2)CC1
microsomal CLint (in vitro [1]; microsomes): 4 µL/min/mg

O=C(O)[C@H](Cc1ccc(Cl)cc1)N1CCC(CN2CCC(Oc3ccc(Cl)c(Cl)c3)CC2)CC1
microsomal CLint (in vitro [1]; liver microsomes): < 3 µL/min/mg

Cc1c(CC(=O)O)c2cc(F)ccc2n1Cc1nc2ccccc2s1
microsomal CLint (in vitro [1]; liver microsomes): < 3 µL/min/mg

CC(C)Cn1c(=O)n(C)c(=O)c2c(C(=O)N3CC[C@@H](O)C3)c(Cc3ccnc4ccc(F)cc34)sc21
logD (physchem [2]): 1.95
solubility thermodynamic (physchem [4]): 871 µM (≈ 445 µg/mL)
fraction unbound at 5 h (in vitro [3]): 0.46

COCC[C@H](Oc1ncnc2c1cnn2-c1ccccc1Cl)C(=O)Nc1ccc(C)cn1
logD (physchem [2]): 3.6
solubility thermodynamic (physchem [4]): 100 µM (≈ 45.3 µg/mL)
fraction unbound at 5 h (in vitro [3]): 0.0457
